Experiments:
JAK (spacer 54) = assay: Indel mutation patterns by deep sequencing of PCR amplicons, HEK293 cells; assay type: cell-based, human
[1] = test system: JAK and PCSK genes, AAVS1 locus; assay: Indel mutation patterns, all three guide RNAs taken together, HEK293 cells; assay type: cell-based, human; settings: compared to Cas9, three guide RNAs

O=c1cc(N2CCOCC2)oc2c(-c3cccc4c3sc3ccccc34)cccc12 [NU7441]
reduction of the two most frequent mutations observed with Cas9 (JAK (spacer 54)): 10 fold | indels with increased frequency that were deletions flanked by micro-homologies of 2 or more nucleotides [1]: 10 out of 12

— patent US20200010519A1, “NUCLEASE FUSIONS FOR ENHANCING GENOME EDITING BY HOMOLOGY-DIRECTED TRANSGENE INTEGRATION” (INSTITUT NATIONAL DE LA SANTE ET DE LA RECHERCHE …, priority 2017, published 2020)
